“Also recorded” adds a separate entry of the source.
Assays:
guinea pig right atrium = assay: Effect on heart rate of isolated guinea pig right atrium; settings: single dose, 10^-7 to 10^-4 M, KH solution, 31° C.
Description: A guinea pig (b.w. 450 g) was stunned and was immediately removed its heart to excise the right atrium therefrom. The right atrium was then suspended in a Magnus tube (30 ml) filled with Krebs-Henseleit (KH) solution which was maintained at 31° C. constantly aerating with a mixture of 95% O2 --5% CO2 therein. After the KH solution was changed with the fresh one at 15-minutes intervals and the heart rate of the right atrium was stabilized in 60-90 minutes, Ap4 A or ATP which was prepared at different concentrations was added to the KH solution in a single dose to determine the change of heart rate. Drug concentrations of 10^-4, 10^-5, 10^-6 and 10^-7 M were employed in this experiment. The heart rate was determined with a cardiotachometer (Nihon Kohden Co.; Model AT601G; Japan) and an isometric converter (Nihon Kohden Co.; Model TB-651T), with a 1-g weight load.

arrhythmia = settings: cited from earlier work; for antiarrhythmic activity: Somlo 1955, Komor and Garas 1955
platelet aggregation = assay: Platelet aggregation by the drug itself in absence of ADP; assay type: cell-based, rabbit
[1] = test system: adrenaline-induced cardiac arrhythmia; assay: Adrenaline-induced arrhythmia model; assay type: in vivo, guinea pig; settings: for antiarrhythmic effect (reduction of incidence of extrasystole): i.v. infusion over 5 min: ATP 3 or 10 mg/kg, Ap4 A 3 or 10 mg/kg, propranolol 1 mg/kg
Description: With a guinea pig (b.w. 450 g) placed under urethane anesthesia (1.1 g/kg), its femoral vein, jugular vein and carotid artery were cannulated. Ap4 A, ATP or propranolol was injected into the femoral vein and adrenaline into the jugular vein through each cannula, while the carotid artery was utilized for a blood pressure monitoring. Changes associated with the administration of the drug were monitored in the same manner as above (B), and ECG was recorded in accordance with the lead II.
Adrenaline-induced cardiac arrhythmia model was prepared by injecting adrenaline (10 μg/kg) into the jugular vein over 5 seconds. Each drug was administered by intravenous infusion over a period of 5 minutes at the following dose: ATP, 3 or 10 mg/kg; Ap4 A, 3 or 10 mg/kg; propranolol, 1 mg/kg. Adrenaline was administered in a single dose 4 minutes after administration of the drug tested. The grading of arrhythmia was assessed in terms of the incidence of extrasystole.

[2] = test system: ouabain-induced cardiac arrhythmia; assay: Ouabain-induced arrhythmia model; assay type: in vivo, guinea pig; settings: i.v. infusion over 5 min: ATP 10 or 30 mg/kg; Ap4 A 30 mg/kg; disopyramide 5 mg/kg; ouabain 7 μg/kg/min
Description: With a guinea pig (b.w. 450 g) placed under urethane anesthesia (1.1 g/kg), its femoral vein, jugular vein and carotid artery were cannulated. Ap4 A, ATP or disopyramide was injected into the femoral vein and ouabain into the jugular vein through each cannula, while the carotid artery was utilized for a blood pressure monitoring. Changes associated with the administration of the drug were assessed by monitoring electrocardiogram (ECG), blood pressure, mean blood pressure and heart rate (Nihon Kohden Co.; Models AB620G, AP601G and AT601G). ECG was recorded in accordance with the lead II.
Ouabain-induced cardiac arrhythmia model was prepared by continuous infusion of ouabain at a rate of 7 μg/kg/min via the jugular vein. Each drug was administered by intravenous infusion over a period of 5 minutes at the following dose: ATP, 10 or 30 mg/kg; Ap4 A, 30 mg/kg; and disopyramide, 5 mg/kg. The drug was administered simultaneously with the infusion of ouabain. The antiarrhythmic effect of the drug tested was assessed in terms of the total dose of ouabain given until onset of each of the following parameters: P-P interval prolongation, T-P overlapping, ventricular arrhythmia, ventricular fibrillation and cardiac arrest.

[3] = Fujii and Nakamura 1977; cited from earlier work

Structure (SMILES): Nc1ncnc2c1ncn2[C@@H]1O[C@H](COP(=O)(O)OP(=O)(O)OP(=O)(O)O)[C@@H](O)[C@H]1O [ATP, Adenosine 5'-triphosphate, reference compound]
- change of heart rate (bradycardic effect) (guinea pig right atrium): reduced the heart rate with a dose-dependency; also recorded: decreased the atrial heart rate with a dose-dependency
- antiarrhythmic activity (arrhythmia): possess the antiarrhythmic activity
- effect on paroxysmal supraventricular tachycardia (arrhythmia; clinical, Otsuka et al. 1986): successful arrest of the paroxysmal supraventricular tachycardia; also recorded: efficacy against the paroxysmal supraventricular tachycardia which is insusceptible to other antiarrhythmic drugs such as verapamil, digoxin and ajimaline
- platelet aggregation by the drug itself (platelet aggregation; 3×10^-5 M or more, absence of ADP): caused a dose-dependent aggregation of platelets
- minimal effective concentration (platelet aggregation; Oryctolagus cuniculus, Platelet, absence of ADP, read-out: concentration causing dose-dependent aggregation of platelets): ≥ 30 µM
- platelet-aggregating activity (platelet aggregation; in words, found by the inventors): has platelet-aggregating activity
- incidence of extrasystole ([1]; 10 mg/kg/5min i.v., adrenaline 10 μg/kg, control value 39%): 5.3%
- antiarrhythmic effect (reduction of incidence of extrasystole) [1]: reduced the incidence of extrasystole with a dose-dependency; also recorded: dose-dependent reduction of the incidence of extrasystole
- antiarrhythmic effect: onset of P-P interval prolongation, T-P overlapping, ventricular arrhythmia, ventricular fibrillation and cardiac arrest [2]: has an antiarrhythmic activity; also recorded: inhibited all these parameters
- vasodilation and other pharmacological effects [3]: vasodilation; also recorded: enhancement of in vivo metabolic activity; also recorded: increase in muscle contraction; also recorded: rise of efficiency of the neural transmission

Structure (SMILES): Nc1ncnc2c1ncn2[C@@H]1O[C@H](CO)[C@@H](O)[C@H]1O [adenosine]
- antiarrhythmic activity (arrhythmia): possess the antiarrhythmic activity

Structure (SMILES): CC(C)N(CCC(C(N)=O)(c1ccccc1)c1ccccn1)C(C)C (stereo not shown) [disopyramide, reference compound]
- antiarrhythmic effect: onset of P-P interval prolongation, T-P overlapping, ventricular arrhythmia, ventricular fibrillation and cardiac arrest [2]: has an antiarrhythmic activity; also recorded: inhibited all these parameters

Structure (SMILES): CC(C)NCC(O)COc1cccc2ccccc12 (stereo not shown) [propranolol, reference compound]
- antiarrhythmic effect (reduction of incidence of extrasystole) [1]: reduced the incidence of extrasystole with a dose-dependency; also recorded: dose-dependent reduction of the incidence of extrasystole
